14 compounds from patent US5811582A, “Dimethyl-(3-aryl-but-3-enyl)-amine compounds as pharmaceutical active ingredients” (priority 1996, dated 1998) can be followed below.

Structures can show the parent of a compound that is named as a salt.

One experiment has as its system mice. In words: Phenylquinone-induced writhing test on mice (analgesia). The following applies: Mus musculus, iv, read-out: ED50 (writhing test on mice). In kind it is in vivo, male NMRI mice. The method, then: Testing for analgesia using the writhing test on mice
Testing for analgesic effectiveness was performed using the phenylquinone-induced writhing test on mice, modified according to I. C. Hendershot, J. Forsaith, J. Pharmacol. Exp. Ther. 125, 237-240 (1959). Male NMRI mice with a weight of 25-30 g were used for this purpose. For each dose of substance, groups of 10 animals received, 10 minutes after the intravenous administration of a compound according to the invention, 0.3 ml per mouse of an 0.02% aqueous solution of phenylquinone (phenylbenzoquinone: manufactured by Sigma, Deisenhofen; solution prepared with the addition of 5% ethanol and kept on a water bath at 45° C.) administered intraperitoneally. The animals were placed individually in observation cages. The number of pain-induced stretching movements (so-called writhing reactions=straightening of the body with stretching of the rear extremities) 5-20 minutes after the administration of phenylquinone was counted by means of a push-button counter.
The ED50 values of the writhing reaction were calculated by means of regression analysis (evaluation program supplied by Martens EDV Service, Eckental) from the dose-dependent decrease in the writhing reactions, by comparison with groups of animals which were tested in parallel and to which no compounds according to the invention were administered.
Background: An intraperitoneal irritant provokes the stretching counted in writhing tests.
`COc1cccc([C@@]2(O)CCCC[C@@H]2CN(C)C)c1.Cl` (racemic) [tramadol, (1RS,2RS)-2-dimethylaminomethyl-1-(3-methoxy-phenyl)-cyclohexanol hydrochloride, reference compound]: the ED50 worked out at 3.68 mg/kg.

Staying with this experiment, now noted: Mus musculus; mice; intravenous, 10 minutes before phenylquinone (0.3 ml of 0.02% solution i.p.); writhing reactions counted 5-20 minutes after phenylquinone; read-out: ED50 (writhing test on mice).
Regarding `CN(C)C[C@H]1CCC=C1c1ccc(C(F)(F)F)cc1` [20 (+)-enantiomer], the 50% effective dose (ED50) was determined as 1.4 mg/kg.
As to `C/C=C(\c1cccc(O)c1)[C@@H](C)CN(C)C` [3 (-)-enantiomer], the ED50 was 0.98 mg/kg.
As to `C/C=C(\c1ccc2cc(O)ccc2c1)C(C)CN(C)C.Cl` (racemic) [Example 12, (Z)-(RS)-6-[1-(2-dimethylamino-1-methyl-ethyl)-propenyl]-naphth-2-ol hydrochloride], the ED50 is 0.97 mg/kg.
The same measure, in the same setting: in the case of `Cc1cc2c(C3=CCCCC3CN(C)C)cccc2s1.Cl` (racemic) [Example 24, (RS)-dimethyl-[2-(2-methyl-benzo[b]thiophen-4-yl]-cyclohex-2-enylmethyl]-amine hydrochloride] it was 1.35 mg/kg; in that of `C/C=C(\c1cccc(OC(=O)c2ccccc2OC(C)=O)c1)C(C)CN(C)C` (racemic) [Example 4, (Z)-(RS)-2-acetoxy-benzoic acid-3-[1-2-dimethylamino-1-methyl-ethyl)-propenyl]-phenyl ester hydrochloride], 1.64 mg/kg; in that of `CC/C=C(\c1cccc(O)c1)C(C)CN(C)C.Cl` (racemic) [Example 15, (Z)-(RS)-3-[1-(2-dimethylamino-1-methyl-ethyl)-but-1-enyl]-phenol hydrochloride], 1.33 mg/kg.
On to `CC(C)=C(c1cccc(O)c1)C(C)CN(C)C.Cl` (racemic) [Example 18, (RS)-3-[1-(2-dimethylamino-1-methyl-ethyl)-2-methyl-propenyl]-phenol hydrochloride], for which the ED50 came out at 2.07 mg/kg.
Consider `C[C@@H]1C=C(c2cccc(O)c2)[C@H](CN(C)C)CC1` [25 (-)-enantiomer], for which the 50% effective dose (ED50) stood at 0.9 mg/kg.
`CN(C)C[C@@H]1CCC=C1c1ccc(C(F)(F)F)cc1` [20 (-)-enantiomer]: the ED50 is 2.12 mg/kg.
For the compound `C/C=C(\c1cccc(O)c1)C(C)CN(C)C.Cl` (racemic) [Example 2, (Z)-(RS)-3-[1-(2-dimethylamino-1-methyl-ethyl)-propenyl]-phenol hydrochloride], the median effective dose (ED50) came to 1.37 mg/kg.
For the compound `CN(C)C[C@@H]1CCCC=C1c1cccc(O)c1` [26 (-)-enantiomer], the ED50 stood at 1.04 mg/kg.
For `C/C=C(\c1cccc(O)c1)[C@H](C)CN(C)C` [3 (+)-enantiomer], the ED50 is 2.25 mg/kg.
For `CN(C)C[C@H]1CCCC=C1c1cccc(O)c1` [27 (+)-enantiomer], the ED50 stood at 1.6 mg/kg.

In general, ED50 refers to the dose at which the effect has come halfway, by size or by number of responders.
